# Measured values published in patent US20040191833A1, “Selective activation of cellular activities mediated through a common toll-like receptor” (3M Innovative Properties Company, priority 2003, published 2004).
# Experiments:
# human TLR7 [1] = target: T1, human TLR7 (Homo sapiens, UniProt Q9NYK1); experiment: TLR7 activation in HEK293 cells (NF-kB-luc luciferase reporter, H-TLR7/H-vector); assay type: cell-based; settings: final IRM concentration 10 μM, 16 hours, normalized to the DMSO without compound control
# T1 construct: expressed in transfected cells; host or cells: Namalwa cells (ATCC CRL-1432), pCI-neo vector, electroporated, G418 selected, with pIFN-α1-luc reporter
# T1 sequence (Q9NYK1 27-1049): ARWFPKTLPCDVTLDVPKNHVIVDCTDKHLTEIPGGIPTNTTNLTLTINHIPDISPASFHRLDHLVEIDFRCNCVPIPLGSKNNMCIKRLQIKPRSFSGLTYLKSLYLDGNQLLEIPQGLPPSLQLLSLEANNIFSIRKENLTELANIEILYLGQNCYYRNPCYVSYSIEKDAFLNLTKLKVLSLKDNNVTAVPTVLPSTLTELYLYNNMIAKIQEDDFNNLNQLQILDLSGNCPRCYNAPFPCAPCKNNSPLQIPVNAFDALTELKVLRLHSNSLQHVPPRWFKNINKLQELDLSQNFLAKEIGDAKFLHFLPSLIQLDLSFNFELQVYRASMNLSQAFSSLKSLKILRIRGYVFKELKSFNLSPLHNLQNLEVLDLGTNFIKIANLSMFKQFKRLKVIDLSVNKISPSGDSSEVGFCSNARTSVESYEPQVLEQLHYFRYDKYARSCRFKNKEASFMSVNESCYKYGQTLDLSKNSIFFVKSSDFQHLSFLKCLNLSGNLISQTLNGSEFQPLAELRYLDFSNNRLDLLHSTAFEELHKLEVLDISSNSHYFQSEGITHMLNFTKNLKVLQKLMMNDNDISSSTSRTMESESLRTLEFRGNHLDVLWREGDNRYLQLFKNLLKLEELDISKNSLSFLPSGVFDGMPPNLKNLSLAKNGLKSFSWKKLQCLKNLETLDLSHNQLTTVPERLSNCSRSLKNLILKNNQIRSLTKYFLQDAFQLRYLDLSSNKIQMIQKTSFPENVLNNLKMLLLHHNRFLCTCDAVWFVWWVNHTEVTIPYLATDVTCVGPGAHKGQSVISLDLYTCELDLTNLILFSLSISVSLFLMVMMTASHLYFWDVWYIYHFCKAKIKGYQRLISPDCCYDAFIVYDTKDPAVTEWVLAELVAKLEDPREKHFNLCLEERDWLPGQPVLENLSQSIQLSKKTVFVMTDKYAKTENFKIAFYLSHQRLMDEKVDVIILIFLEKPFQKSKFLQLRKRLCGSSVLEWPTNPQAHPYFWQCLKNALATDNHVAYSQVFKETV
# Experimental: (§1) In one embodiment, exemplified in Example 1, selective modulation of TLR7-mediated NF-κB activation and TLR7-mediated IFN-α1 induction were assayed. NF-κB activation was measured in genetically modified HEK293 cells (H-TLR7) by detecting TLR7-mediated NF-κB-dependent transcription of a luciferase reporter. IFN-α1 induction was measured in genetically modified Namalwa cells (N-TLR7) by detecting TLR-mediated IFN-α1-induced transcription of a luciferase reporter. Results are shown in Table 2 and are expressed as the fold increase in TLR7-mediated luciferase signal—(H-TLR7/H-vector) and (N-TLR7/N-vector), respectively—normalized to a control in which the cells were treated with vehicle that contained no IRM compound. In this assay, a compound was considered to induce the TLR7-mediated cellular activity if the compound generated at least a two-fold increase in the luciferase signal compared to the vector control.
# HEK293 medium was prepared from 90% Minimum Essential Medium (MEM) with 2 mM L-glutamine and Earle's Balanced Salt Solution (Invitrogen Corp., Rockville, Md.) adjusted to contain 1.5 g/L sodium bicarbonate, 0.1 mM non-essential amino acids, and 1.0 mM sodium pyruvate; 10% heat-inactivated fetal calf serum. HEK293 cells were cultured by incubating cells in HEK293 medium overnight at 37° C, 8% CO2.
# Twenty-four hours before transfection, HEK293 cells were adhered to a 10 cm dish (Corning 430167, Corning Inc., Corning, N.Y.) at 37° C., 8% CO2. The cells were co-transfected with (1) pIRES (BD Biosciences Clontech, Palo Alto, Calif.) either (a) unmodified (H-vector), or (b) containing an expressible human TLR7 gene (H-TLR7), and (2) NF-kB-luc reporter (Stratagene, La Jolla, Calif.) in a 10:1 ratio with Fugene 6 transfection reagent (Roche Diagnostics Corp., Indianapolis, Ind.) following the manufacturer's instructions. The plates were incubated for 24 hours following transfection and then selected in G-418 (400 μg/mL) for two weeks. The G-418-resistant cells containing either the expressible TLR7 gene or the empty vector were expanded in HEK293 medium supplemented with G-418 for stimulation experiments.
# The transfected cells were plated in white opaque 96 well plates (Costar 3917, Corning Inc., Corning, N.Y.) at a concentration of 5×10^4 cells per well in 100 μL of HEK293 media and incubated at 37° C., 8% CO2 for 4 hours. The cells were stimulated with 1 μL of IRM compounds at 1 mM in DMSO (final IRM concentration of 10 μM) or 1 μL DMSO as a control. The plates were then incubated an additional 16 hours at 37° C., 5% CO2. The luciferase signal was read using the LucLite kit (Packard Instrument Co., Meriden, Conn.). Luminescence was measured on an LMAX luminometer (Molecular Devices Corp., Sunnyvale, Calif.).
# (§2) The data are expressed as fold increase in TLR7-mediated luciferase signal—(H-TLR7/H-vector) and (N-TLR7/N-vector), respectively—normalized to the DMSO without compound control.
# human TLR7 [2] = target: T1, human TLR7; experiment: TLR7 activation in Namalwa cells (IFN-α1 promoter luciferase reporter, N-TLR7/N-vector); assay type: cell-based; settings: final IRM concentration 10 μM, 18 hours, normalized to the DMSO without compound control
# Experimental: as §1
# Unless otherwise indicated, all incubations were performed at 37° C. with 5% CO2 at 98% humidity.
# Culture medium was prepared from complete RPMI 1640 medium (BioSource International, Inc., Camarillo, Calif.). Fetal bovine serum (Atlas Biologicals, Inc., Ft. Collins, Colo.) was added to a final concentration of 7.5% (vol/vol); L-glutamine (BioSource International, Inc.) was added to 5 mM; and sodium pyruvate (BioSource International, Inc.) was added to 1 mM.
# Namalwa cells were grown by incubation in culture medium overnight. Cells were harvested by centrifugation in a tabletop centrifuge (1200 RPM for 5 minutes), and then resuspended in phosphate buffered sucrose to a concentration of 1.3×10^7 cells/mL.
# For each transfection, a 750 μL aliquot of the cell suspension was placed in an electroporation cuvette with 4 mm gaps. Each aliquot received transfection DNA: 10 μg of pGL3-Enhancing vector (Promega Corp., Madison, Wis.) containing the human IFN-α1 promoter cloned into the BglII site (pIFN-α1-luc), and 10 μg of pCI-neo mammalian expression vector (Promega Corp.) either (1) unmodified (N-vector) or (2) containing an expressible human TLR7 gene (N-TLR7). The cell and vector mixtures were incubated at room temperature for 5 minutes. The cells were electroporated using a BioRad Gene Pulser (BioRad Laboratories, Hercules, Calif.) set to at 500 μF capacitance and […], then incubated at room temperature for 5 minutes.
# The electroporated cells were suspended in 10 mL of culture medium and incubated overnight. Dead cells and debris were removed after 24 hours using a MACS Dead Cell Removal kit (Miltenyi Biotec, Auburn, Calif.). Cells were resuspended in 10 mL of culture medium and incubated for an additional 24 hours.
# Transfected cells were selected by adding G418 (Promega Corp., Madison, Wisc.) to a final concentration of 1 mg/mL and incubating the cells for seven days.
# The selected transfected cells were counted and resuspended to a concentration of 1×10^6 cell per mL in culture medium. 100 μl aliquots of cells were placed in the wells of a white-walled, white-bottomed 96-well plate (Corning, Inc. Corning, N.Y.). 1.0 μL of an IRM compound from Table 1 (prepared at 1 mM in 100% DMSO) was added to some cell aliquots so that the final concentration of IRM compound was 10 μM. As a positive control, some cell aliquots were incubated with Sendai virus instead of IRM compound. As a negative control, some cell aliquots were incubated with DMSO without IRM compound. In all cases, the cells were incubated for 18 hours.
# The plates were equilibrated to room temperature before 1 volume of reconstituted LucLight Plus (Packard Instruments, Meriden, Conn.) was added to each aliquot of cells. Each well of the plate was read on an LJL Analyst (LJL Biosystems, Inc., Sunnyvale, Calif.) set with a 5 minute dark adapt.
# as §2
SMILES,"H-TLR7: fold increase in TLR7-mediated luciferase signal (H-TLR7/H-vector), NF-κB-dependent reporter (human TLR7 [1])","N-TLR7: fold increase in TLR7-mediated luciferase signal (N-TLR7/N-vector), IFN-α1 promoter reporter (human TLR7 [2])"
"Cc1nc2c(N)nc3ccccc3c2n1CCOCCNC(=O)c1ccccc1 [IRM17, N-{2-[2-(4-amino-2-methyl-1H-imidazo[4,5-c]quinolin-1-yl)ethoxy]ethyl}benzamide]",0.4 fold,3.1 fold
"COCCc1nc2c(N)nc3ccccc3c2n1CCCCCCCCNC(=O)Nc1ccccc1 [IRM2, N-{8-[4-amino-2-(2-methoxyethyl)-1H-imidazo[4,5-c]quinolin-1-yl]octyl}-N′-phenylurea]",4.1 fold,1.5 fold
"Cc1nc2c(N)nc3ccccc3c2n1CCOC/C=C/c1ccccc1 [IRM5, 2-methyl-1-(2-{[(2E)-3-phenylprop-2-enyl]oxy}ethyl)-1H-imidazo[4,5-c]quinolin-4-amine]",3.4 fold,1.6 fold
"COCCOCc1nc2c(N)nc3ccccc3c2n1CCOc1ccccc1 [IRM15, 2-[(2-methoxyethoxy)methyl]-1-(2-phenoxyethyl)-1H-imidazo[4,5-c]quinolin-4-amine]",0.8 fold,2.7 fold
"CCCCc1nc2c(N)nc3cccnc3c2n1CCNC(=O)C(N)CC(C)C (stereo not drawn) [IRM11, N^1-[2-(4-amino-2-butyl-1H-imidazo[4,5-c][1,5]naphthyridin-1-yl)ethyl]-2-amino-4-methylpentanamide]",0.5 fold,2.8 fold
"Cc1nc2c(N)nc3ccccc3c2n1CCCNC(=O)C1CCCC1 [IRM16, N-[3-(4-amino-2-methyl-1H-imidazo[4,5-c]quinolin-1-yl)propyl]cyclopentanecarboxamide]",0.9 fold,2.8 fold
"CC(C)Cn1c(CO)nc2c(N)nc3c(c21)CCCC3 [IRM8, 2-hydroxymethyl-1-(2-methylpropyl)-6,7,8,9-tetrahydro-1H-imidazo[4,5-c]quinolin-4-amine]",0.4 fold,3.0 fold

# More lines, now with the values ahead:
"H-TLR7: fold increase in TLR7-mediated luciferase signal (H-TLR7/H-vector), NF-κB-dependent reporter (human TLR7 [1])","N-TLR7: fold increase in TLR7-mediated luciferase signal (N-TLR7/N-vector), IFN-α1 promoter reporter (human TLR7 [2])",SMILES
0.9 fold,3.3 fold,"Cc1nc2c(N)nc3ccccc3c2n1CCOCCNS(C)(=O)=O [IRM19, N-{2-[2-(4-amino-2-methyl-1H-imidazo[4,5-c]-1-yl)ethoxy]ethyl}methanesulfonamide]"
0.7 fold,3.8 fold,"CCCc1nc2c(N)nc3ccccc3c2n1CCCCS(C)(=O)=O [IRM21, 1-[4-(methylsulfonyl)butyl]-2-propyl-1H-imidazo[4,5-c]quinolin-4-amine]"
7.6 fold,3.0 fold,"COCCc1nc2c(N)nc3c(c2n1CC(C)(C)NS(C)(=O)=O)CCCC3 [IRM25, N-{2-[4-amino-2-(2-methoxyethyl)-6,7,8,9-tetrahydro-1H-imidazo[4,5-c]quinolin-1-yl]-1,dimethylethyl}methanesulfonamide]"
5.5 fold,2.2 fold,"CCOCc1nc2c(N)nc3ccccc3c2n1CC(C)C [IRM22, 2-(ethoxymethyl)-1-(2-methylpropyl)-1H-imidazo[4,5-c]quinolin-4-amine]"
9.4 fold,2.8 fold,"CCCCc1nc2c(N)nc3ccccc3c2n1CCCCCS(C)(=O)=O [IRM23, 2-butyl-1-[5-(methylsulfonyl)pentyl]-1H-imidazo[4,5-c]quinolin-4-amine]"
